Assays:
BE(2)-C cell = assay: Cell proliferation assay (MTS) in BE(2)-C cells; assay type: cell-based; conditions: Homo sapiens, inhibition of BE(2)-C cell proliferation, 48 h
Procedure, shortened: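 Proliferation read-out was MTS absorbance at 490 nm, with 650 nm as reference, after a 2 h MTS incubation, giving IC50 values. Before reading, BE(2)-C cells plated at 3000 per well were exposed to nine compound concentrations from 10000 down to 1.5 nM for 48 h at 37 °C, 5% CO2.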

CDK1/cyclin B = target: T1, CDK1/cyclin B (Homo sapiens, UniProt P06493); assay: CDK kinase inhibition assay (33P-ATP HotSpot filter binding); assay type: biochemical; conditions: substrate Histone H1, 10 μM ATP
T1 construct: purchased Invitrogen PR4768C
T1 sequence (P06493 whole entry): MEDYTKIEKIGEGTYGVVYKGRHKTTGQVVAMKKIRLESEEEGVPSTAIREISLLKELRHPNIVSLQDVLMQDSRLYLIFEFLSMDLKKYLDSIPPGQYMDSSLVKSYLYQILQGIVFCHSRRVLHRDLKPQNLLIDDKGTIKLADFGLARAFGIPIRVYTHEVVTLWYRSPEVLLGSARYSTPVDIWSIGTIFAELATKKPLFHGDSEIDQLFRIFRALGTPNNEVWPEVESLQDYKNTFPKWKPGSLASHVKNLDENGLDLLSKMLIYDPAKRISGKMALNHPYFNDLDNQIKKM
T1 sequence (P14635 whole entry partner): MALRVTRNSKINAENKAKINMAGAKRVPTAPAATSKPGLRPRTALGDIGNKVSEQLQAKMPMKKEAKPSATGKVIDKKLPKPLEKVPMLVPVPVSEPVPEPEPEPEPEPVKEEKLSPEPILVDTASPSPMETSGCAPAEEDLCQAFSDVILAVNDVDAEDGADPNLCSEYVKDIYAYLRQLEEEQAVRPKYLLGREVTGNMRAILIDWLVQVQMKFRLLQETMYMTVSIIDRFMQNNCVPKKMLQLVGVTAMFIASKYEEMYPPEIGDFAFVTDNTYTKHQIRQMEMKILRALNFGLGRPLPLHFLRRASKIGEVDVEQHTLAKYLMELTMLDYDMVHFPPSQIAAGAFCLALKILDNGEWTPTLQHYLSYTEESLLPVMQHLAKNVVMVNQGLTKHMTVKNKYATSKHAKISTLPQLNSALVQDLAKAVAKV
Protocol: (§1) Testing compounds were dissolved in 100% DMSO to specific concentration. Compounds were tested in 10-dose mode with 3-fold serial dilution starting at 100 μM. The serial dilution was conducted by epMotion 5070 in DMSO.
(§2) Each substrate was prepared in freshly prepared Reaction Buffer (20 mM Hepes (pH 7.5), 10 mM MgCl2, 1 mM EGTA, 0.02% Brij35, 0.02 mg/ml BSA, 0.1 mM Na3VO4, 2 mM DTT, 1% DMSO). Each kinase was delivered into the substrate solution and the solution was gently mixed. 0.05 μL Compounds were delivered into 5 μL kinase reaction mixture in a 384 well plate by Acoustic technology (Echo550; nanoliter range), and the mixture was incubated for 20 min at room temperature. 0.01 μL of 5 mM ATP with ^33P-ATP (PerkinElmer, Cat# NEG602H001MC, Specific activity […]) was delivered into the reaction mixture to initiate the reaction, and the final concentration of ATP in the mixture was 10 μM. The resulted solutions were incubated for 2 hours at room temperature, the radioactivity incorporated is determined by the proprietary “HotSpot” platform, which is a miniaturized filter-binding method (using this paper as reference: Anastassiadis et al, 2011 Nature Biotech) IC50 value of each compound was generated using GraphPad Prism software.
(§3) Select compounds prepared as described above were assayed according to the biological procedures described herein.

CDK2/cyclin A = target: T2, CDK2/cyclin A (Homo sapiens, UniProt P24941); assay: as above; assay type: biochemical; conditions: substrate Histone H1, 10 μM ATP
T2 construct: purchased Invitrogen PR4448B
Protocol: as §1, §2, §3

CDK4/cyclin D1 = target: T3, CDK4/cyclin D1 (Homo sapiens, UniProt P11802); assay: as above; assay type: biochemical; conditions: substrate RB Protein, 10 μM ATP
T3 construct: purchased Invitrogen PV4436
T3 sequence (P11802 whole entry): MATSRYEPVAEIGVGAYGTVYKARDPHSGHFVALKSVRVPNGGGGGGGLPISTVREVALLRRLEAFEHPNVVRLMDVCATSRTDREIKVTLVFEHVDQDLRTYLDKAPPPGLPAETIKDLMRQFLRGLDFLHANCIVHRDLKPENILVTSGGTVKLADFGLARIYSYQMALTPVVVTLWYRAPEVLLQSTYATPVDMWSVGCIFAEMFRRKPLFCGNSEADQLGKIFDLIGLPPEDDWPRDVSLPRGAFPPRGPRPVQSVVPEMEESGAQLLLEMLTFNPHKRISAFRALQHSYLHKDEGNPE
T3 sequence (P24385 whole entry partner): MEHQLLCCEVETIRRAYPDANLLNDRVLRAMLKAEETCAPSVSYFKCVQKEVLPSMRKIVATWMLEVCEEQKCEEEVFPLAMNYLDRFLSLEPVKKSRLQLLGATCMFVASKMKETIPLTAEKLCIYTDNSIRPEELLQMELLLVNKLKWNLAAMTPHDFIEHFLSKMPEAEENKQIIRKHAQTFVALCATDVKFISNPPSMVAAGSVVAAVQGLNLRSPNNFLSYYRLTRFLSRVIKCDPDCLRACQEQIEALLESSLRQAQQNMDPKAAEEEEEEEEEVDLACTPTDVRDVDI
Protocol: as §1, §2, §3

CDK6/cyclin D1 = target: T4, CDK6/cyclin D1 (Homo sapiens, UniProt Q00534); assay: as above; assay type: biochemical; conditions: substrate RB Protein, 10 μM ATP
T4 construct: purchased Invitrogen PR8422B
T4 sequence (Q00534 whole entry): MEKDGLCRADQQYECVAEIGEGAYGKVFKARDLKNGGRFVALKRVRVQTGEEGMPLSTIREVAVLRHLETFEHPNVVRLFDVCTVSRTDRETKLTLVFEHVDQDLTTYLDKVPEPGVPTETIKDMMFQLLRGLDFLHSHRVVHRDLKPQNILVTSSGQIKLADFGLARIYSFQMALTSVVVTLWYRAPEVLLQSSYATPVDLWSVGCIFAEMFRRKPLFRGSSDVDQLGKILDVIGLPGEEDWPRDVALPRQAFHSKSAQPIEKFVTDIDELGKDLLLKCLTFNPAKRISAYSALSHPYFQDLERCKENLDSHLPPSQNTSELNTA
T4 sequence (P24385 whole entry partner): as the sequence (P24385 whole entry partner) above
Protocol: as §1, §2, §3

COLO205 xenograft tumors = assay: Tumor growth inhibition in COLO205 xenograft tumors; assay type: in vivo; conditions: 30 mg/kg
Protocol: COLO205 cells were cultured with RPMI-1640 medium containing 10% fetal bovine serum (FBS) at 37° C. in 5% CO2 incubator. Logarithmic growth phase cells were collected. COLO205 cells (5×10^6 in 200 μL PBS) were implanted subcutaneously into the left flank region, and tumor growth was monitored. Tumor volume (V) was estimated from the length (l) and width (w) of the tumor using the following formula: V=1/2×l×w^2. Treatment started when average tumor size was 100-150 mm^3. Measuring subcutaneous tumor volume 2 to 3 times every week. Drug efficacy was assessed as Tumor Growth Inhibition (TGI) and Tumor increment rate T/C (%). TGI was defined as (1−T/C)×100%, wherein T/C (%) presented the ratio of the change in mean tumor volume of the treated group and of the control group.

Row | Compound | IC50 (BE(2)-C cell) [nM] | IC50 (CDK1/cyclin B) [nM] | IC50 (CDK2/cyclin A) [nM] | IC50 (CDK4/cyclin D1) [nM] | IC50 (CDK6/cyclin D1) [nM] | Average Tumor Volume D0 (COLO205 xenograft tumors; D0, in mm³) | T/C % D21 (COLO205 xenograft tumors; D21) [%] | TGI % D21 (COLO205 xenograft tumors; D21) [%] | Average Tumor Volume D21 (COLO205 xenograft tumors; D21, in mm³)
1 | CCN1CCN(Cc2ccc(Nc3ncc(F)c(-c4cc(F)c5nc6n(c5c4)[C@H](C(F)F)CC6)n3)nc2)CC1 [Example 12, (S)-4-(1-(difluoromethyl)-5-fluoro-2,3-dihydro-1H-benzo[d]pyrrolo[1,2-a]imidazol-7-yl)-N-(5-((4-ethylpiperazin-1-yl)methyl)pyridin-2-yl)-5-fluoropyrimidin-2-amine] | 10 to 100 | 403 | 50.5 | < 5 | < 5 | 113 ± 3.4 | 29 | 71 | 584 ± 86
2 | CN1CCN(c2ccc(Nc3ncc(F)c(-c4cc(F)c5nc6n(c5c4)[C@H](C(F)F)CC6)n3)nc2)CC1 [Example 39, (S)-4-(1-(difluoromethyl)-5-fluoro-2,3-dihydro-1H-benzo[d]pyrrolo[1,2-a]imidazol-7-yl)-5-fluoro-N-(5-(4-methylpiperazin-1-yl)pyridin-2-yl)pyrimidin-2-amine] | > 100 | 50.5 | 19.2 | < 5 | < 5 |  |  |  | 

— US10450316B2, “Certain protein kinase inhibitor” (Chongqing Fochon Pharmaceutical Co., Ltd., priority 2015, dated 2019)
